# Measurements published in paper PMC8873251, “An amiloride derivative is active against the F1Fo-ATP synthase and cytochrome bd oxidase of Mycobacterium tuberculosis” (Communications Biology, 2022).
# Experiments:
# [1] = molecular target: T1, F1Fo-ATP synthase c-subunit (c-ring) (Mycolicibacterium phlei, UniProt A0A5N5V239); assay: MALDI-MS time course of covalent c-subunit labelling; type: binding
# T1 construct: gene atpE
# cytochrome bd oxidase = molecular target: T2, cytochrome bd oxidase (Mycobacterium tuberculosis, UniProt L7N662+O06139); assay: malate-driven oxygen consumption in IMVs pre-inhibited with TB47, titration; empty-vector control; type: biochemical
# T2 construct: gene cydA
# T2 sequence (O06139 entry or part of it): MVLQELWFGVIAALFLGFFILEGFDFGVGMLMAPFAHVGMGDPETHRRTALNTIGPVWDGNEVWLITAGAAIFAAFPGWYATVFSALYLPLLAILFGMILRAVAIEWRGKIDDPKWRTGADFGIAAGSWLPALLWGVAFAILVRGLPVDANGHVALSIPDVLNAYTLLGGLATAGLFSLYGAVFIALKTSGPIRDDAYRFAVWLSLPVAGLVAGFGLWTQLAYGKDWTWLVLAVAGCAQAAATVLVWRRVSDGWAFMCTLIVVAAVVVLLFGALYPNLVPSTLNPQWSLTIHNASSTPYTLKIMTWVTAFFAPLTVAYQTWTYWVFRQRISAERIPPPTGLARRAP
# T2 sequence (L7N662 entry or part of it): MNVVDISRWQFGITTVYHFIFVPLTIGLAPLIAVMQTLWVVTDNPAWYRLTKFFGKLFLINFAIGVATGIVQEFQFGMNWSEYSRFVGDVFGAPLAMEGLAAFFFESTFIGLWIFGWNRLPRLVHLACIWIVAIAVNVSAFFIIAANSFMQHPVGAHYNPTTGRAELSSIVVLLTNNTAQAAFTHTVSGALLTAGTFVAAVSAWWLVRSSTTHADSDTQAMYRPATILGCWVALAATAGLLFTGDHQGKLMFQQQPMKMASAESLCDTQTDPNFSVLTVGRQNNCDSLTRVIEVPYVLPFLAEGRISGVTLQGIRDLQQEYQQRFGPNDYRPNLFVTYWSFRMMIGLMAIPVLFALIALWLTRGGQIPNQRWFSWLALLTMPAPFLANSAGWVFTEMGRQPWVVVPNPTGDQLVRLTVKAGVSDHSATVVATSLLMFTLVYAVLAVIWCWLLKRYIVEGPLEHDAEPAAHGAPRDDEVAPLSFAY
# [2] = molecular target: T1, F1Fo-ATP synthase c-subunit (c-ring); assay: MALDI-MS competition with DCCD labelling of purified c-ring; type: binding
# T1 sequence (A0A5N5V239 1-86): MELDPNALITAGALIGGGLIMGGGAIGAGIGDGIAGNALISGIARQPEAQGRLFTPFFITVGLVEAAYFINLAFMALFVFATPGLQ
smiles,measurement,setting,value
"C(=NC1CCCCC1)=NC1CCCCC1 [DCCD, N,N'-dicyclohexylcarbodiimide]",MALDI-MS time course of covalent c-subunit labelling,[1],Time course of DCCD labelling in purified M. phlei c-rings in the presence of the indicated amounts of HMA
N=C(N)NC(=O)c1nc(-c2cc3ccccc3o2)c(N)nc1N [HM2-16F],IC50,cytochrome bd oxidase,21.2 µM
"N=C(N)NC(=O)c1nc(Cl)c(N2CCCCCC2)nc1N [HMA, 5-(N,N-hexamethylene)amiloride]",MALDI-MS competition with DCCD labelling of purified c-ring,[2],HMA was able to outcompete the canonical c-ring covalent inhibitor DCCD for inhibition of the M. phlei F1Fo-ATP synthase c-subunit
